Data published in PubChem BioAssay AID256 (DTP/NCI, 2004).
Several values for one entry are separate records, joined by “and”; a condition that tells them apart may be missing. Identical values can stand only once. Inconclusive results and toxic doses are left out. Rule for the calls: active = survival T/C of 150% or more; inactive = T/C below 125% in these data.

Tested on: CD2F1 mice, L1210 leukemia ip, survival T/C
Test: NCI In Vivo Anticancer Drug Screen. Data for tumor model L1210 Leukemia (intraperitoneal) in CD2F1 (CDF1) mice
Conditions: endpoint: mean survival time, higher = longer survival
In short: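 Each value reflects a quotient of treated over vehicle control outcomes in mice with a transplanted tumor.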

[1] = dose: 100.0 mg/kg/injection, schedule: Q04DX003 (ip), vehicle: saline with Tween-80
[2] = dose: 200.0 mg/kg/injection, schedule: Q04DX003 (ip), vehicle: saline with Tween-80
[3] = dose: 400.0 mg/kg/injection, schedule: Q04DX003 (ip), vehicle: saline with Tween-80
[4] = dose: 100.0 mg/kg/injection, schedule: Q04DX002 (ip), vehicle: saline with Tween-80
[5] = dose: 200.0 mg/kg/injection, schedule: Q04DX002 (ip), vehicle: saline with Tween-80
[6] = dose: 400.0 mg/kg/injection, schedule: Q04DX002 (ip), vehicle: saline with Tween-80
[7] = dose: 100.0 mg/kg/injection, schedule: Q01DX009 (ip), vehicle: saline with Tween-80
[8] = dose: 200.0 mg/kg/injection, schedule: Q01DX009 (ip), vehicle: saline with Tween-80
[9] = dose: 400.0 mg/kg/injection, schedule: Q01DX009 (ip), vehicle: saline with Tween-80
[10] = dose: 200.0 mg/kg/injection, schedule: Q04DX003 (ip), vehicle: saline
[11] = dose: 50.0 mg/kg/injection, schedule: Q01DX009 (ip), vehicle: saline with Tween-80

Measured: T/C

O=C(O)CCN1C(=O)c2ccccc2C1=O
inactive: [1] 98 % of control | [2] 97 % of control | [3] 97 % of control

O=c1[nH]cc(S)c(=O)[nH]1
inactive: [4] 106 % of control | [5] 97 % of control | [6] 106 % of control

COC1=C(C)C(=O)C2=C(C1=O)C(COC(N)=O)C1(OC)C3C(CN21)N3C(=O)c1ccccc1 (stereo unspecified)
inactive: dose: 7.5 mg/kg/injection, schedule: Q01DX001 (ip), vehicle: acetone 106 % of control | dose: 10.0 mg/kg/injection, schedule: Q01DX001 (ip), vehicle: acetone 112 % of control | dose: 15.0 mg/kg/injection, schedule: Q01DX001 (ip), vehicle: acetone 112 % of control

CC(=O)N/C(=C\c1ccccc1)C(N)=O
inactive: [7] 103 % of control | [8] 95 % of control | [9] 100 % of control

O=C(NO)Nc1ccccc1
inactive: dose: 8.0 mg/kg/injection, schedule: Q03HX024 (ip), vehicle: other 101 % of control | dose: 16.0 mg/kg/injection, schedule: Q03HX024 (ip), vehicle: other 101 % of control | dose: 32.0 mg/kg/injection, schedule: Q03HX024 (ip), vehicle: other 101 % of control | dose: 62.0 mg/kg/injection, schedule: Q03HX024 (ip), vehicle: saline with Tween-80 89 % of control | dose: 64.0 mg/kg/injection, schedule: Q03HX024 (ip), vehicle: other 95 % of control | dose: 93.0 mg/kg/injection, schedule: Q03HX024 (ip), vehicle: saline with Tween-80 86 % of control | dose: 128.0 mg/kg/injection, schedule: Q03HX024 (ip), vehicle: other 92 % of control

COc1cc2c(cc1OC)-c1cc3cc(OC)c(OC)cc3c(C)[n+]1CC2 (tested in a mixture with another compound)
inactive: dose: 100.0 mg/kg/injection, schedule: Q04DX003 (ip), vehicle: saline sonified 103 % of control

COc1ccc(CCN)cc1O
inactive: dose: 75.0 mg/kg/injection, schedule: Q01DX001 (ip), vehicle: saline 98 % of control | dose: 150.0 mg/kg/injection, schedule: Q01DX001 (ip), vehicle: saline 98 % of control | dose: 300.0 mg/kg/injection, schedule: Q01DX001 (ip), vehicle: saline 98 % of control

CCC(C)(O)C(C)N(C)c1ccccc1 (stereo unspecified)
inactive: dose: 100.0 mg/kg/injection, schedule: Q04DX003 (ip), vehicle: saline 102 % of control and 97 % of control | [10] 102 % of control and 100 % of control | dose: 400.0 mg/kg/injection, schedule: Q04DX003 (ip), vehicle: saline 102 % of control and 106 % of control

N#CC1CCCC1=O (stereo unspecified)
inactive: dose: 5.0 mg/kg/injection, schedule: Q04DX003 (ip), vehicle: saline 101 % of control | dose: 10.0 mg/kg/injection, schedule: Q04DX003 (ip), vehicle: saline 101 % of control | dose: 20.0 mg/kg/injection, schedule: Q04DX003 (ip), vehicle: saline 106 % of control

CCOC(=O)CN1C(=O)CN=C(c2ccccn2)c2cc(Cl)ccc21
inactive: [1] 102 % of control | [2] 89 % of control | [3] 89 % of control

COC1OC2COCOC2C(OS(=O)(=O)c2ccc(C)cc2)C1OS(=O)(=O)c1ccc(C)cc1 (stereo unspecified)
inactive: [11] 103 % of control | [7] 97 % of control | [8] 97 % of control

CC1(C)C2CCC1(C)C(OCCCN=C(N)CSS(=O)(=O)O)C2 (stereo unspecified)
inactive: dose: 9.4 mg/kg/injection, schedule: Q04DX002 (ip), vehicle: saline with Tween-80 95 % of control | dose: 18.7 mg/kg/injection, schedule: Q04DX002 (ip), vehicle: saline with Tween-80 109 % of control | dose: 37.5 mg/kg/injection, schedule: Q04DX002 (ip), vehicle: saline with Tween-80 112 % of control

COC(=O)c1cccn1C(=O)c1ccccc1N
inactive: [4] 96 % of control | [5] 93 % of control | [6] 100 % of control

COCC1=Nc2c(ncnc2SCc2ccccc2)NN1
inactive: dose: 100.0 mg/kg/injection, schedule: Q01DX001 (ip), vehicle: other 95 % of control

NCC(S)c1ccc(Cl)cc1 (stereo unspecified)
inactive: dose: 12.5 mg/kg/injection, schedule: Q04DX003 (ip), vehicle: saline 98 % of control | dose: 25.0 mg/kg/injection, schedule: Q04DX003 (ip), vehicle: saline 93 % of control | dose: 50.0 mg/kg/injection, schedule: Q04DX003 (ip), vehicle: saline 96 % of control

O=C(/C=C\c1ccc(NCc2ccc(C(=O)O)cc2)cc1)CCl
inactive: [7] 111 % of control | [2] 91 % of control | [3] 86 % of control

CC(CC(=O)Nc1ccc(S(=O)(=O)F)cc1)c1ccc(N2C(N)=NC(N)=NC2(C)C)cc1 (stereo unspecified)
inactive: dose: 12.5 mg/kg/injection, schedule: Q01DX009 (ip), vehicle: saline 109 % of control | dose: 25.0 mg/kg/injection, schedule: Q01DX009 (ip), vehicle: saline 109 % of control | dose: 50.0 mg/kg/injection, schedule: Q01DX009 (ip), vehicle: saline 113 % of control | dose: 100.0 mg/kg/injection, schedule: Q01DX009 (ip), vehicle: saline 113 % of control | dose: 100.0 mg/kg/injection, schedule: Q#A X018 (ip), vehicle: saline 116 % of control | dose: 150.0 mg/kg/injection, schedule: Q#A X018 (ip), vehicle: saline 119 % of control | dose: 200.0 mg/kg/injection, schedule: Q01DX009 (ip), vehicle: saline 113 % of control and 121 % of control | dose: 300.0 mg/kg/injection, schedule: Q01DX009 (ip), vehicle: saline 118 % of control | dose: 400.0 mg/kg/injection, schedule: Q01DX009 (ip), vehicle: saline 124 % of control

O/N=C1\CCCCC1C(O)(/C(=N/O)c1ccccc1)c1ccccc1 (stereo unspecified)
inactive: dose: 100.0 mg/kg/injection, schedule: Q01DX001 (ip), vehicle: saline with Tween-80 96 % of control | dose: 200.0 mg/kg/injection, schedule: Q01DX001 (ip), vehicle: saline with Tween-80 86 % of control | dose: 400.0 mg/kg/injection, schedule: Q01DX001 (ip), vehicle: saline with Tween-80 91 % of control

O=S(=O)(Nc1ccc(Br)cc1)c1ccc(Cl)c(Cl)c1
inactive: [4] 91 % of control | [5] 88 % of control | [6] 88 % of control

CCCCCCCc1c(C)c2ccc(OC)cc2[nH]c1=O
inactive: [1] 95 % of control | [2] 90 % of control

C[n+]1c(O)c(C(=O)CCl)n2cc([N+](=O)[O-])ccc21
inactive: dose: 12.5 mg/kg/injection, schedule: Q01DX009 (ip), vehicle: acetone 95 % of control | dose: 25.0 mg/kg/injection, schedule: Q01DX009 (ip), vehicle: acetone 101 % of control | dose: 50.0 mg/kg/injection, schedule: Q01DX009 (ip), vehicle: acetone 90 % of control

N#CCc1nc2ccccc2[nH]1
inactive: dose: 25.0 mg/kg/injection, schedule: Q01DX009 (ip), vehicle: Klucel (hydroxypropylcellulose) (HPC) 98 % of control | dose: 50.0 mg/kg/injection, schedule: Q01DX009 (ip), vehicle: Klucel (hydroxypropylcellulose) (HPC) 93 % of control

CS(=O)(=O)c1ccc(NN)c([N+](=O)[O-])c1
inactive: [1] 98 % of control | [2] 98 % of control | [3] 102 % of control

O=C(O)CC/C(=N\O)c1cccc([N+](=O)[O-])c1
inactive: [1] 102 % of control | [2] 102 % of control | [3] 98 % of control

Cc1ccc(S(=O)(=O)O/N=C2/CCC(C)(C)c3ccccc32)cc1
inactive: [7] 102 % of control | [1] 102 % of control | [8] 102 % of control | [2] 103 % of control | [9] 94 % of control | [3] 96 % of control

CC(C)OC(=O)Nc1ccc(F)c(F)c1
inactive: [7] 95 % of control | [8] 98 % of control | [9] 114 % of control

CN1C(=O)NC(c2ccc(Cl)cc2)(c2ccc(Cl)cc2)C1=O
inactive: dose: 12.5 mg/kg/injection, schedule: Q01DX009 (ip), vehicle: distilled water + Tween-80 93 % of control | dose: 12.5 mg/kg/injection, schedule: Q01DX009 (ip), vehicle: saline with Tween-80 97 % of control | dose: 25.0 mg/kg/injection, schedule: Q01DX009 (ip), vehicle: distilled water + Tween-80 95 % of control | dose: 25.0 mg/kg/injection, schedule: Q01DX009 (ip), vehicle: saline with Tween-80 101 % of control | dose: 50.0 mg/kg/injection, schedule: Q01DX009 (ip), vehicle: distilled water + Tween-80 103 % of control | [11] 101 % of control | dose: 100.0 mg/kg/injection, schedule: Q01DX009 (ip), vehicle: distilled water + Tween-80 98 % of control | [7] 89 % of control | dose: 200.0 mg/kg/injection, schedule: Q01DX009 (ip), vehicle: distilled water + Tween-80 98 % of control | [8] 91 % of control

CC1(C)N=C(N)N=C(N)N1c1ccc(OCc2ccc(C(=O)Nc3cccc(S(=O)(=O)F)c3)cc2)c(Cl)c1
inactive: [10] 104 % of control
